Our source for the Result values is US12446574B2, “Adjuvants for agrochemical formulations” (SYNGENTA CROP PROTECTION AG, priority 2016, dated 2025).

This series in a line: Storage stability of aqueous adjuvant formulations: clear isotropic single-phase solution after 24 hours at the temperature of interest. The format is physicochemical. Also noted: key: Pass: Samples which were found to be clear isotropic solutions after 24 hours were classified as a pass; Fail: all other results were classed as a fail. From the text:
For the purposes of the present invention we define a stable formulation of adjuvant in water as one where the mixture forms a homogeneous or single phase liquid. The liquid may be a micellar solution however it will appear isotropic to the naked eye. […] This stability allows the design of products with shelf lives potentially running to several years. […]

As for `COCc1cnc(C2=NC(C)(C(C)C)C(=O)N2)c(C(=O)O)c1` (stereo not drawn) [Imazamox, imazamox], the Result entry reads like this: (20 °C, Plurafac=0, water=40.5, imazamox=4.5, Tween 20=50, PG=5 % w/w) “Pass”; (20 °C, Plurafac=0, water=45, imazamox=5, Tween 20=50 % w/w) “Pass”; (20 °C, Plurafac=0, water=64.8, imazamox=7.2, Tween 20=20, PG=8 % w/w) “Pass”; (20 °C, Plurafac=0, water=72, imazamox=8, Tween 20=20 % w/w) “Pass”; (20 °C, Plurafac=0, water=72.9, imazamox=8.1, Tween 20=10, PG=9 % w/w) “Pass”; (20 °C, Plurafac=0, water=81, imazamox=9, Tween 20=10 % w/w) “Pass”. Further, the Result result is, setting by setting: (50 °C, Plurafac=0, water=40.5, imazamox=4.5, Tween 20=50, PG=5 % w/w) “Pass”; (50 °C, Plurafac=0, water=45, imazamox=5, Tween 20=50 % w/w) “Pass”; (50 °C, Plurafac=0, water=64.8, imazamox=7.2, Tween 20=20, PG=8 % w/w) “Pass”; (50 °C, Plurafac=0, water=72, imazamox=8, Tween 20=20 % w/w) “Pass”; (50 °C, Plurafac=0, water=72.9, imazamox=8.1, Tween 20=10, PG=9 % w/w) “Pass”; (50 °C, Plurafac=0, water=81, imazamox=9, Tween 20=10 % w/w) “Pass”. Also, the Result entry was “Fail” (-5 °C, Plurafac=0, water=40.5, imazamox=4.5, Tween 20=50, PG=5 % w/w); “Fail” (-5 °C, Plurafac=0, water=45, imazamox=5, Tween 20=50 % w/w); “Pass” (-5 °C, Plurafac=0, water=64.8, imazamox=7.2, Tween 20=20, PG=8 % w/w); “Pass” (-5 °C, Plurafac=0, water=72, imazamox=8, Tween 20=20 % w/w); “Pass” (-5 °C, Plurafac=0, water=72.9, imazamox=8.1, Tween 20=10, PG=9 % w/w); “Pass” (-5 °C, Plurafac=0, water=81, imazamox=9, Tween 20=10 % w/w). Besides, the Result result by setting is: (-10 °C, Plurafac=0, water=40.5, imazamox=4.5, Tween 20=50, PG=5 % w/w) “Fail”; (-10 °C, Plurafac=0, water=45, imazamox=5, Tween 20=50 % w/w) “Fail”; (-10 °C, Plurafac=0, water=64.8, imazamox=7.2, Tween 20=20, PG=8 % w/w) “Pass”; (-10 °C, Plurafac=0, water=72, imazamox=8, Tween 20=20 % w/w) “Pass”; (-10 °C, Plurafac=0, water=72.9, imazamox=8.1, Tween 20=10, PG=9 % w/w) “Pass”; (-10 °C, Plurafac=0, water=81, imazamox=9, Tween 20=10 % w/w) “Pass”.
